According to article PMC5524711 (Scientific Reports, 2017):
Where two headings read alike, the source gives them in different places.

What was measured:
α1β2γ2 GABAA receptors = biological target: T1, α1β2γ2 GABAA receptors (UniProt P18508+P47870+P62813); assay: Xenopus oocyte two-electrode voltage clamp; type: cell-based, rat and human
T1 construct: expressed in transfected cells; host or cells: Xenopus laevis oocytes (cRNA injection)

[1] = biological target: GABAA receptors (washed rat brain membranes); assay: Displacement of [3H]muscimol binding (PDSP); details: 5 nM [3H]muscimol
Experimental: Rat brain membranes were prepared as described in the Protocol Manual on the PDSP website (https://pdspdb.unc.edu/pdspWeb/). […] The final concentration of [^3H]muscimol in the assay mixture was 5 nM. […] Analysis of ligand binding data.

[2] = biological target: GABAA receptors, benzodiazepine site (washed rat brain membranes); assay: [3H]Flunitrazepam binding and displacement; details: read-out: [3H]Flunitrazepam Binding, displacement, 1 nM [3H]flunitrazepam, 10 µM GABA
Experimental: Membrane Preparation. These experiments were performed at the University of Colorado Health Sciences Center, Denver, CO. Experiments were approved by the Institutional Animal Care and Use Committee (IACUC) of the University of Colorado, Denver, and were performed in accordance with the NIH Guide for the Care and Use of Laboratory Animals. Male Sprague-Dawley rats (200–250 g) were maintained in an AAALAC-accredited facility and sacrificed by CO2 exposure and decapitation. Brains were removed, and membranes were prepared from the forebrain as described previously. Ligand binding assay. […] Bound and free ligand were separated by rapid filtration under vacuum over Whatman GF/B filters presoaked in buffer in a 24 port Brandel Cell Harvester. Filters were washed with 2 × 5 ml of ice-cold HEPES buffer and dried prior to measurement of bound radioactivity by scintillation counting (Beckman LS3800 scintillation counter) using Ultima Gold XR scintillation cocktail. Analysis of ligand binding data.

[3] = biological target: T2, α1β2(N265S)γ2 GABAA receptors (UniProt P18508+P47870+P62813, N289S); parameters: method as in PMID 19741491; details: concentrations up to 1 mM; cited from earlier work
T2 construct: expressed in transfected cells; host or cells: Xenopus laevis oocytes (cRNA injection)

α1β2 GABAA receptors = biological target: T3, α1β2 GABAA receptors (UniProt P47870+P62813); assay: Xenopus oocyte two-electrode voltage clamp; type: cell-based, rat and human; details: a1b2
T3 construct: expressed in transfected cells; host or cells: Xenopus laevis oocytes (cRNA injection)

α1β3 GABAA receptors = biological target: T4, α1β3 GABAA receptors (Rattus norvegicus, UniProt P62813+P63079); assay: Xenopus oocyte two-electrode voltage clamp; type: cell-based; details: a1b3
T4 construct: expressed in transfected cells; host or cells: Xenopus laevis oocytes (cRNA injection)

α5β3 GABAA receptors = biological target: T5, α5β3 GABAA receptors (UniProt P31644+P63079); assay: Xenopus oocyte two-electrode voltage clamp; type: cell-based, rat; details: a5b3
T5 construct: expressed in transfected cells; host or cells: Xenopus laevis oocytes (cRNA injection)

α1β1γ2 GABAA receptors = biological target: T6, α1β1γ2 GABAA receptors (Rattus norvegicus, UniProt P15431+P18508+P62813); assay: Xenopus oocyte two-electrode voltage clamp; type: cell-based; details: a1b1g2
T6 construct: expressed in transfected cells; host or cells: Xenopus laevis oocytes (cRNA injection)

[4] = biological target: T2, α1β2(N265S)γ2 GABAA receptors; assay: Xenopus oocyte two-electrode voltage clamp; type: cell-based, rat and human; details: a1b2(N265S)g2
α1β2γ1 GABAA receptors = biological target: T7, α1β2γ1 GABAA receptors (UniProt P47870+P62813+Q8N1C3); assay: Xenopus oocyte two-electrode voltage clamp; type: cell-based, rat and human; details: a1b2g1
T7 construct: expressed in transfected cells; host or cells: Xenopus laevis oocytes (cRNA injection); γ1 cDNA synthesized by GenScript in pGEMHE

α1β3γ2 GABAA receptors = biological target: T8, α1β3γ2 GABAA receptors (Rattus norvegicus, UniProt P18508+P62813+P63079); assay: Xenopus oocyte two-electrode voltage clamp; type: cell-based; details: a1b3g2
T8 construct: expressed in transfected cells; host or cells: Xenopus laevis oocytes (cRNA injection)

α5β3γ2 GABAA receptors = biological target: T9, α5β3γ2 GABAA receptors (UniProt P18508+P31644+P63079); assay: Xenopus oocyte two-electrode voltage clamp; type: cell-based, rat; details: a5b3g2
T9 construct: expressed in transfected cells; host or cells: Xenopus laevis oocytes (cRNA injection)

α1β3δ GABAA receptors = biological target: T10, α1β3δ GABAA receptors (Rattus norvegicus, UniProt P18506+P62813+P63079); assay: Xenopus oocyte two-electrode voltage clamp; type: cell-based; details: a1b3d
T10 construct: expressed in transfected cells; host or cells: Xenopus laevis oocytes (cRNA injection)

α4β3γ2 GABAA receptors [5] = biological target: T11, α4β3γ2 GABAA receptors (UniProt P18508+P48169+P63079); parameters: method as in Borghese et al., 2006; details: a4b3g2; ref Borghese et al., 2006; cited from earlier work
T11 construct: expressed in transfected cells; host or cells: Xenopus laevis oocytes (cRNA injection)

α4β3δ GABAA receptors [6] = biological target: T12, α4β3δ GABAA receptors (UniProt P18506+P48169+P63079); parameters: method as in Borghese et al., 2006; details: a4b3d; ref Borghese et al., 2006; cited from earlier work
T12 construct: expressed in transfected cells; host or cells: Xenopus laevis oocytes (cRNA injection)

α4β3γ2 GABAA receptors [7] = biological target: T11, α4β3γ2 GABAA receptors; assay: Xenopus oocyte two-electrode voltage clamp; type: cell-based, rat; details: a4b3g2; [Zn++] 1 µM
α4β3δ GABAA receptors [8] = biological target: T12, α4β3δ GABAA receptors; assay: Xenopus oocyte two-electrode voltage clamp; type: cell-based, rat; details: a4b3d; [Zn++] 1 µM
medial CeA neurons = assay: Brain slice whole cell patch clamp recording; type: cell-based, rat; details: 100 μM, focally applied following DCUK-OEt (0.5 µM)
Experimental: Slices were prepared from brains of 5 adult male Wistar rats (250–350 g) as described by Herman et al.[56]. A single slice was transferred to a recording chamber mounted on the stage of an upright microscope (Olympus BX50WI).
Neurons were visualized and whole cell patch clamp recordings were made as previously described[56]. Series resistance was typically <15 MΩ and was continuously monitored with a hyperpolarizing 10 mV pulse. Electrophysiological properties of cells were determined by pClamp 10 Clampex software online during voltage-clamp recording using a 5 mV pulse delivered after breaking into the cell. The resting membrane potential was determined online after breaking into the cell using the zero current (I = 0) recording configuration and the liquid junction potential was included in the determination. […]
Frequency, amplitude and decay of spontaneous inhibitory postsynaptic currents (sIPSCs) were analyzed and visually confirmed using a semi-automated threshold based mini detection software (Mini Analysis, Synaptosoft Inc.). Averages of sIPSC characteristics were determined from baseline and experimental drug conditions containing a minimum of 60 events (time period of analysis varied as a product of individual event frequency) and decay kinetics were determined using exponential curve fittings and reported as decay time (ms). […]

T2 sequence (P62813 28-455): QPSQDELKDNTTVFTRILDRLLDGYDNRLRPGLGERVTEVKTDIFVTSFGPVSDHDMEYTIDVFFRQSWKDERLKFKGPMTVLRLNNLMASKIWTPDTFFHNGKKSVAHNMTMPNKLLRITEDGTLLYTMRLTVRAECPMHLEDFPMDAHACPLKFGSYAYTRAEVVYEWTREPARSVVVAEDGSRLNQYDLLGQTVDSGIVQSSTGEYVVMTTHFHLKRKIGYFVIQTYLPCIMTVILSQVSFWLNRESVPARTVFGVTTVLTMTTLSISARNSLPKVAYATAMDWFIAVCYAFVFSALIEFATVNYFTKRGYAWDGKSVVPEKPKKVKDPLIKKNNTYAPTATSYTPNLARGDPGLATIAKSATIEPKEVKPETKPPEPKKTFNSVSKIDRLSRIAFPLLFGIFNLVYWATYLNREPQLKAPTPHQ
T2 sequence (P47870 25-474 isoform P47870-1 N289S limits assumed): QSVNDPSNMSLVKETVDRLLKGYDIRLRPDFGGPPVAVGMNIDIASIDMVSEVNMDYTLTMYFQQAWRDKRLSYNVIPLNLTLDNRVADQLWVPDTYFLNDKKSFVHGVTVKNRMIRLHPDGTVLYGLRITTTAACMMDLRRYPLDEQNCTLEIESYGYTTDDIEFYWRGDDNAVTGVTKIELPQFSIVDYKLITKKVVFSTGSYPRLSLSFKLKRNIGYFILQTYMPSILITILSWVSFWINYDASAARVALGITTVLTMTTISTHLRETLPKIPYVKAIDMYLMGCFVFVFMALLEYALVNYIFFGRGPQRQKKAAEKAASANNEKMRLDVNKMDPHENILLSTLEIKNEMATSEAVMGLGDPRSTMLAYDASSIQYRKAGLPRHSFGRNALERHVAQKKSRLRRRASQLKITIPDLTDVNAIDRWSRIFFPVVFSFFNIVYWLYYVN
T2 sequence (P18508 39-466): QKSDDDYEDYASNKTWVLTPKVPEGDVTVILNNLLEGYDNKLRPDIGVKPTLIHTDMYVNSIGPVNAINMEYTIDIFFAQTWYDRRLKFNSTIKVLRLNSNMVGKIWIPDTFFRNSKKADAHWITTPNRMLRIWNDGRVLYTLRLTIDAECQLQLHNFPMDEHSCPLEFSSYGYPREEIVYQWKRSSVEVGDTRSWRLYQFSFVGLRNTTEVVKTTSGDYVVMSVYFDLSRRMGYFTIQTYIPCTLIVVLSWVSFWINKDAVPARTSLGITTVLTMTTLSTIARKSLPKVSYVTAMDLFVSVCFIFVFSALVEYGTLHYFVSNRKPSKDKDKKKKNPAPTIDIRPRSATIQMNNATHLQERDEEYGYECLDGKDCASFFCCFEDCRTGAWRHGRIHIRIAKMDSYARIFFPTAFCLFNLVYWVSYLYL
T1 sequence (P62813 28-455): as the sequence (P62813 28-455) above
T1 sequence (P47870 26-474 isoform P47870-1 limits assumed): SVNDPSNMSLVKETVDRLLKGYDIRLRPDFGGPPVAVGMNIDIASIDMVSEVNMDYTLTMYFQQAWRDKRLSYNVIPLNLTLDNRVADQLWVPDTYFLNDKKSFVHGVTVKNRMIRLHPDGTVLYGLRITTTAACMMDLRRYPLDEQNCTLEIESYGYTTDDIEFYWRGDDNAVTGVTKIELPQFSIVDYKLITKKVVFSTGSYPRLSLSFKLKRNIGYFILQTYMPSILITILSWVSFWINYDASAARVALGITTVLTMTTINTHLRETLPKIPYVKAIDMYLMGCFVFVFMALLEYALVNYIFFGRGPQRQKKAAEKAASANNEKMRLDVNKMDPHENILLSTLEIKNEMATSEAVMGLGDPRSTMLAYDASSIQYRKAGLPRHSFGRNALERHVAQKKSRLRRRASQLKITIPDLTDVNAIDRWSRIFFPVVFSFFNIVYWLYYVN
T1 sequence (P18508 39-466): as the sequence (P18508 39-466) above
T6 sequence (P62813 28-455): as the sequence (P62813 28-455) above
T6 sequence (P15431 26-474): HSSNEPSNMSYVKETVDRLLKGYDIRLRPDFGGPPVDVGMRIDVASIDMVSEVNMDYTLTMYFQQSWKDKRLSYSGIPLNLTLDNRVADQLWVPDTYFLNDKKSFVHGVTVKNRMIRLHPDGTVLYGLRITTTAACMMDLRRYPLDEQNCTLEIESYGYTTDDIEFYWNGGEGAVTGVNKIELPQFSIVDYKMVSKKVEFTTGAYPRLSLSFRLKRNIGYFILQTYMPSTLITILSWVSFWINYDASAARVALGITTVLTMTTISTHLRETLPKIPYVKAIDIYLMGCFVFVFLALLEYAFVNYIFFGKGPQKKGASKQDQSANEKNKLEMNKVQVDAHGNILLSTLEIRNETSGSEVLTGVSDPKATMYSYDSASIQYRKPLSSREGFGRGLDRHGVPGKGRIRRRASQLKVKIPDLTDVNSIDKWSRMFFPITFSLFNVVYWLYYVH
T6 sequence (P18508 39-466): as the sequence (P18508 39-466) above
T7 sequence (P62813 28-455): as the sequence (P62813 28-455) above
T7 sequence (P47870 26-474 isoform P47870-1 limits assumed): as the sequence (P47870 26-474 isoform P47870-1 limits assumed) above
T7 sequence (Q8N1C3 36-465): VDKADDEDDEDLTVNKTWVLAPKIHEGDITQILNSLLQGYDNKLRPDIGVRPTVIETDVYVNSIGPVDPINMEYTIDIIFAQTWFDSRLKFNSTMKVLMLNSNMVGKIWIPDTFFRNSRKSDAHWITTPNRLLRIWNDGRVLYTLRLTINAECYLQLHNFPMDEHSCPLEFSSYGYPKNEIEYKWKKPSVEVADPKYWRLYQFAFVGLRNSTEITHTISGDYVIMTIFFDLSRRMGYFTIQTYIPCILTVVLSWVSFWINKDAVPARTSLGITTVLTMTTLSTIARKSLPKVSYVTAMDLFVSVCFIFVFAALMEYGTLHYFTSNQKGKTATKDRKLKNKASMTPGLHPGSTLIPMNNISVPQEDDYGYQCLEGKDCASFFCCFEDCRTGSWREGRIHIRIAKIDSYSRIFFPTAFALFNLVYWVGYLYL
T8 sequence (P62813 28-455): as the sequence (P62813 28-455) above
T8 sequence (P63079 26-473): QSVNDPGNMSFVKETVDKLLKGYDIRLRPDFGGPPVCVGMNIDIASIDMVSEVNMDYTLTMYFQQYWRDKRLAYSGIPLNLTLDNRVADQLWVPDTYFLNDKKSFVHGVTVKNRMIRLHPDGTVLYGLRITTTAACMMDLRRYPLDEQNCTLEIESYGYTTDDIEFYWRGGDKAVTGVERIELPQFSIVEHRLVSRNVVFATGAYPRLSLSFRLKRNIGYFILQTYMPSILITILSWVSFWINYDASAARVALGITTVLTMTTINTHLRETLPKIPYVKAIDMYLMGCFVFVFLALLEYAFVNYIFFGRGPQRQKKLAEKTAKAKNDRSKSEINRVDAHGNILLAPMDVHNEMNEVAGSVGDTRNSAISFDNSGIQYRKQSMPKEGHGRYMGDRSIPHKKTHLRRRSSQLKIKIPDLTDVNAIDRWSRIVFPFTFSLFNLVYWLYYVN
T8 sequence (P18508 39-466): as the sequence (P18508 39-466) above
T4 sequence (P62813 28-455): as the sequence (P62813 28-455) above
T4 sequence (P63079 26-473): as the sequence (P63079 26-473) above
T10 sequence (P62813 28-455): as the sequence (P62813 28-455) above
T10 sequence (P63079 26-473): as the sequence (P63079 26-473) above
T10 sequence (P18506 17-449 limits assumed): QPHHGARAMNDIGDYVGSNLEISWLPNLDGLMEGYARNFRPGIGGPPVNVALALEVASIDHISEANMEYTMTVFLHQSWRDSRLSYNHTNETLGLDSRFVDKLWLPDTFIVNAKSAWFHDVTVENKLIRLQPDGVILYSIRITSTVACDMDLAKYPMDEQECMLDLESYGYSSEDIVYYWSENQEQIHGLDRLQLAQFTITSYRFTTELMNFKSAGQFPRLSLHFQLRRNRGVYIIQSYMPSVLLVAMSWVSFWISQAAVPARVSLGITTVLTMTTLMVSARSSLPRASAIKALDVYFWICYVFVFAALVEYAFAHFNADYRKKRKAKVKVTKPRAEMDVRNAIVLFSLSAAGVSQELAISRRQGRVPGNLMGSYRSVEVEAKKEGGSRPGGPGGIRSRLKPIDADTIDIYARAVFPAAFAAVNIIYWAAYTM
T3 sequence (P62813 28-455): as the sequence (P62813 28-455) above
T3 sequence (P47870 26-474 isoform P47870-1 limits assumed): as the sequence (P47870 26-474 isoform P47870-1 limits assumed) above
T11 sequence (P48169 36-554): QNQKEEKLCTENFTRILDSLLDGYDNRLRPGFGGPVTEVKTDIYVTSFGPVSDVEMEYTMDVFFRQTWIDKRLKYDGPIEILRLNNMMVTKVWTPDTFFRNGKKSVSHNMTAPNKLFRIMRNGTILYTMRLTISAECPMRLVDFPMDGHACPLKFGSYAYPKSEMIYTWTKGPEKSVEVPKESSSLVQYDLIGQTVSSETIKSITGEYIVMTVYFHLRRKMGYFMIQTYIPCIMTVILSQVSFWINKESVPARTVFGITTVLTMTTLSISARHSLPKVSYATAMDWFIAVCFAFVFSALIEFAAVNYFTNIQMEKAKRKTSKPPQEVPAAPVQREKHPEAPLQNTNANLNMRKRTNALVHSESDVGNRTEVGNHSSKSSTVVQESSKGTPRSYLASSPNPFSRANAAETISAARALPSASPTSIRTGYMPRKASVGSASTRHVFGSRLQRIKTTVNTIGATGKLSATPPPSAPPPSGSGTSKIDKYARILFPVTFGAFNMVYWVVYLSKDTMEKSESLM
T11 sequence (P63079 26-473): as the sequence (P63079 26-473) above
T11 sequence (P18508 39-466): as the sequence (P18508 39-466) above
T12 sequence (P48169 36-554): as the sequence (P48169 36-554) above
T12 sequence (P63079 26-473): as the sequence (P63079 26-473) above
T12 sequence (P18506 17-449 limits assumed): as the sequence (P18506 17-449 limits assumed) above

With C[C@]12CC[C@@H](O)C[C@@H]1CC[C@@H]1[C@@H]2CC[C@]2(C)C(c3ccccc3)=CC[C@@H]12 [Compound 17PA, 17-phenyl-(3α,5α)-androst-16-en-3-ol] the inhibition at 10 µM (α1β2γ2 GABAA receptors; read-out: Inhibition by 17PA of DCUK-OEt potentiation of GABA actions) was 35% and the inhibition at 10 µM (α1β2γ2 GABAA receptors; read-out: Inhibition by 17PA of the potentiating effects of allopregnanolone on GABA-induced currents) was 56%.

With O=C(O)c1cc(NC(=O)N(c2ccccc2)c2ccccc2)c2c(Cl)cc(Cl)cc2n1 [DCUKA, 5,7 dichloro-4-([diphenylcarbamoyl]amino) quinoline-2-carboxylic acid] the Ki [1] was 6.6 ± 1.9 µM, the Ki [2] was greater than 10 µM and the “Effect of co-applied flumazenil on DCUK actions on α1β2γ2 GABAA receptors” value (α1β2γ2 GABAA receptors; 20 μM flumazenil, EC10 GABA) was “did not significantly affect”. For the same compound, the “Effect on submaximal GABA (EC10) currents” value (α1β2γ2 GABAA receptors; oocytes containing α1β2γ2 GABAA receptors) was “enhanced”.

In the case of CCOC(=O)c1cncn1[C@H](C)c1ccccc1 [Etomidate, etomidate], the “GABA potentiating effect at α1β2(N265S)γ2” value [3] is given as “no GABA potentiating effect”.

For NCCCC(=O)O [GABA, γ-aminobutyric acid], the “nH (Hill coefficient of GABA concentration-response curve)” value (α1β2 GABAA receptors) was 1.19 ± 0.08, the “nH (Hill coefficient of GABA concentration-response curve)” value (α1β3 GABAA receptors) was 0.97 ± 0.06 and the “nH (Hill coefficient of GABA concentration-response curve)” value (α5β3 GABAA receptors) was 0.93 ± 0.07. The “nH (Hill coefficient of GABA concentration-response curve)” value (α1β1γ2 GABAA receptors) was 0.76 ± 0.07, the “nH (Hill coefficient of GABA concentration-response curve)” value (α1β2γ2 GABAA receptors; a1b2g2) was 0.99 ± 0.03 and the “nH (Hill coefficient of GABA concentration-response curve)” value [4] was 0.81 ± 0.06. For the same compound, the “nH (Hill coefficient of GABA concentration-response curve)” value (α1β2γ1 GABAA receptors) was 0.87 ± 0.06, the “nH (Hill coefficient of GABA concentration-response curve)” value (α1β3γ2 GABAA receptors) was 1.33 ± 0.08 and the “nH (Hill coefficient of GABA concentration-response curve)” value (α5β3γ2 GABAA receptors) was 0.93 ± 0.04. The “nH (Hill coefficient of GABA concentration-response curve)” value (α1β3δ GABAA receptors) was 0.78 ± 0.07, the “nH (Hill coefficient of GABA concentration-response curve)” value (α4β3γ2 GABAA receptors [5]) was 1.01 ± 0.09 and the “nH (Hill coefficient of GABA concentration-response curve)” value (α4β3δ GABAA receptors [6]) was 0.84 ± 0.07.

For [Zn+2] [Zn++], the “% change of EC10 GABA responses by Zn++” value (α1β2 GABAA receptors; [Zn++] 10 µM) was -99 ± 1%, the “% change of EC10 GABA responses by Zn++” value (α1β3 GABAA receptors; [Zn++] 1 µM) was -85 ± 3% and the “% change of EC10 GABA responses by Zn++” value (α5β3 GABAA receptors; [Zn++] 10 µM) was -89 ± 2%. The “% change of EC10 GABA responses by Zn++” value (α1β1γ2 GABAA receptors; [Zn++] 100 µM) was 21 ± 3%, the “% change of EC10 GABA responses by Zn++” value (α1β2γ2 GABAA receptors; a1b2g2, [Zn++] 10 µM) was -9 ± 4% and the “% change of EC10 GABA responses by Zn++” value ([4]; [Zn++] 10 µM) was 10 ± 2%. For the same compound, the “% change of EC10 GABA responses by Zn++” value (α1β2γ1 GABAA receptors; [Zn++] 10 µM) was 0.4 ± 1.4%, the “% change of EC10 GABA responses by Zn++” value (α1β3γ2 GABAA receptors; [Zn++] 10 µM) was -19 ± 4% and the “% change of EC10 GABA responses by Zn++” value (α4β3γ2 GABAA receptors [7]) was -43 ± 4%. The “% change of EC10 GABA responses by Zn++” value (α5β3γ2 GABAA receptors; [Zn++] 10 µM) was -29 ± 6%, the “% change of EC10 GABA responses by Zn++” value (α1β3δ GABAA receptors; [Zn++] 1 µM) was -35 ± 1% and the “% change of EC10 GABA responses by Zn++” value (α4β3δ GABAA receptors [8]) was -31 ± 6%.

With CCOC(=O)c1ncn2c1CN(C)C(=O)c1cc(F)ccc1-2 [flumazenil] the “Potentiation of EC10 GABA responses” value (α1β2γ2 GABAA receptors) was 51 ± 2%.

With COc1ccc(-c2ccc(=N)n(CCCC(=O)O)n2)cc1 [gabazine] the “Holding current when applied after DCUK-OEt” value (medial CeA neurons) was “significant reduction in holding current”.
